Test results: patent US9797884B2, “Marker for determination of sensitivity to anticancer agent” (KEIO UNIVERSITY, priority 2011, dated 2017)

Legend:
Type in all cases: cell-based, human
[1] = tested on: LS174T; experiment: MTS assay cell viability, 48 hours L-OHP exposure
Description: (§1) Ten human colorectal cancer cell lines (DLD-1, HCT15, HCT116, HT29, Lovo, LS174T, SW480, SW620, SW1116, and WiDr) were employed. HCT116 and HT29 were obtained from Kabushiki Kaisha Yakult Honsha. DLD-1, Lovo, SW480, SW1116, and WiDr were obtained from Dainippon Sumitomo Pharma Co., Ltd. HCT15 and LS174T were obtained from Cell Resource Center for Biomedical Research, Institute of Development, Aging and Cancer, Tohoku University. SW620 was obtained from Summit Pharmaceuticals International Corporation.
(§2) Cancer cells of each cell line were exposed to 0- to 1,000-μmol/L L-OHP for 48 hours and after drug exposure, cell viability was determined by means of an MTS assay (CellTiter96™ AQueous One Solution Cell Proliferation Assay, Promega). IC50 value (L-OHP concentration at which cell growth is inhibited by 50% as compared with L-OHP-non-treated sample) was calculated, and sensitivity of each cell line to L-OHP was evaluated by the IC50 value as an index.

[2] = tested on: HCT116; experiment: MTS assay cell viability, 48 hours L-OHP exposure; conditions: HCT116, 48 hours exposure, read-out: IC50 value (L-OHP concentration at which cell growth is inhibited by 50%)
Description: as §1, §2

[3] = tested on: SW480; experiment: MTS assay cell viability, 48 hours L-OHP exposure; conditions: SW480, 48 hours exposure, read-out: IC50 value (L-OHP concentration at which cell growth is inhibited by 50%)
Description: as §1, §2

[4] = tested on: HT29; experiment: MTS assay cell viability, 48 hours L-OHP exposure; conditions: HT29, 48 hours exposure, read-out: IC50 value (L-OHP concentration at which cell growth is inhibited by 50%)
Description: as §1, §2

[5] = tested on: HCT15; experiment: MTS assay cell viability, 48 hours L-OHP exposure
Description: as §1, §2

[6] = tested on: SW620; experiment: MTS assay cell viability, 48 hours L-OHP exposure
Description: as §1, §2

[7] = tested on: WiDr; experiment: MTS assay cell viability, 48 hours L-OHP exposure; conditions: 48 hours exposure, read-out: IC50 value (L-OHP concentration at which cell growth is inhibited by 50%)
Description: as §1, §2

[8] = tested on: SW1116; experiment: MTS assay cell viability, 48 hours L-OHP exposure; conditions: SW1116, 48 hours exposure, read-out: IC50 value (L-OHP concentration at which cell growth is inhibited by 50%)
Description: as §1, §2

[9] = tested on: Lovo; experiment: MTS assay cell viability, 48 hours L-OHP exposure; conditions: 48 hours exposure, read-out: IC50 value (L-OHP concentration at which cell growth is inhibited by 50%)
Description: as §1, §2

[10] = tested on: DLD-1; experiment: MTS assay cell viability, 48 hours L-OHP exposure; conditions: DLD-1, 48 hours exposure, read-out: IC50 value (L-OHP concentration at which cell growth is inhibited by 50%)
Description: as §1, §2

[11] = tested on: HCT116 and DLD-1 cells; experiment: CE-TOFMS metabolomic analysis of intracellular metabolites after exposure to L-OHP; conditions: 10 μM L-OHP, 24-hour exposure
Experimental: Among the cell lines employed in Example 1, two human colorectal cancer cell lines (HCT116 and DLD-1) were employed. Cell culturing was performed by means of a φ100 mm/Tissue Culture Dish (IWAKI) with a medium (Dulbecco's modified Eagle's Medium (DMEM) containing 10% fetal bovine serum (product of Invitrogen) at 37° C. under 5% CO2 conditions.
The two colorectal cancer cells were exposed to L-OHP by changing the culture medium to a medium containing L-OHP at 10 μmol/L. The same culture was performed in an L-OHP-free medium (control group). After exposure to L-OHP (0 hr, 4 hr, 12 hr, 24 hr, and 48 hr), the cells were washed on ice with 5% mannitol (4° C.). Immediately thereafter, methanol (4° C., containing an internal standard) was added to the washed cells, to thereby inactivate present enzymes, and the cells were stored at −80° C. Separately, cells for cell count were provided in addition to the cells from which metabolites were extracted, and then subjected to the same treatment before performing cell count. The data were employed in correction of the cell counts. […]
Comprehensive analysis of intracellular metabolites was performed by means of a capillary electrophoresis-time-of-flight-type mass spectrometer (CE-TOFMS) (product of Agilent Technologies). […] Metabolites detected at m/z values of 50 to 1,000 were simultaneously quantitated.

[12] = tested on: DLD-1; experiment: Sensitivity of colorectal cancer cells to 5-FU
[13] = tested on: HCT116; experiment: Sensitivity of colorectal cancer cells to 5-FU

| sensitivity of the cell line to 5-FU [12] | sensitivity of the cell line to 5-FU [13] | Structure (SMILES) | sensitivity group of the cell line to L-OHP on the basis of the MTS assay [1] | IC50 [2] | IC50 [3] | IC50 [4] | sensitivity group of the cell line to L-OHP on the basis of the MTS assay [5] | sensitivity group of the cell line to L-OHP on the basis of the MTS assay [6] | IC50 [7] | IC50 [8] | IC50 [9] | IC50 [10] | ratio (HCT116/DLD-1) of IMP intracellular level after exposure relative to control group ([11]; IMP) | ratio (HCT116/DLD-1) of intracellular level after exposure relative to control group, each metabolite ([11]; dTMP, CMP, UMP, GMP, CDP, UDP, dCTP, CTP, UTP, GTP, NADP+, ATP and/or dGTP) |
| --- | --- | --- | --- | --- | --- | --- | --- | --- | --- | --- | --- | --- | --- | --- |
|  |  | O=C1[O][Pt]2([NH][C@@H]3CCCC[C@H]3[NH]2)[O]C1=O [L-OHP, (SP-4-2)-[(1R,2R)-cyclohexane-1,2-diamine-κN,κN′][ethanedioato (2-)-κO^1,κO^2]platinum] | low-sensitive | 0.89 ± 0.33 µM | 0.65 ± 0.07 µM | 23.9 ± 9.29 µM | high-sensitive | high-sensitive | 17.3 ± 5.24 µM | 26.4 ± 4.12 µM | 0.72 ± 0.12 µM | 16.9 ± 6.31 µM | 0.26 | ≥ 1.2 |
| low-sensitivity | high-sensitivity | O=c1[nH]cc(F)c(=O)[nH]1 [5-FU, fluorouracil] |  |  |  |  |  |  |  |  |  |  |  |  |
